According to patent US6538037B2, “Methods for preparation and use of 1α,24(S)-dihydroxyvitamin D2” (Bone Care International, Inc., priority 1991, dated 2003):

What was measured:
[1] = tested on: human cancer cell lines BCA-1 or ZR-75-1 (breast) and COL-1 (colon); assay: Antiproliferative activity in human cancer cell lines (thymidine incorporation); format: cell-based; conditions: dose-response studies
Description: Dose-response studies are conducted with 1α,24(S)-(OH)2D2 in a battery of human cancer cell lines. These cell lines include, but are not limited to, the following: BCA-1 or ZR-75-1 (breast) and COL-1 (colon), as described by Shieh, H. L. et al. Chem. Biol. Interact., vol. 81, pp. 35-55 (1982). In this study, appropriate solvents are used as negative controls.

vitamin D receptor (VDR) = assay: Vitamin D-inducible growth hormone production in transfected COS-1 cells; format: cell-based, Green monkey; conditions: for Total GH Production: averages of duplicate determinations
Description: The biological activity in vitro of chemically synthesized 1α,24(S)-(OH)2D2 and 1α,24(R)-(OH)2D2 was measured using a vitamin D-dependent transcriptional activation model system in which a vitamin D receptor (VDR)-expressing plasmid pSG5-hVDR1/3 and a plasmid p(CT4)^4TKGH containing a Growth Hormone (GH)-gene, under the control of a vitamin D-responsive element (VDRE) were co-transfected into Green monkey kidney, COS-1 cells. DNA's for these two vectors were supplied by Dr. Mark Haussler, Department of Biochemistry, University of Arizona, Tucson, Ariz.
Transfected cells were incubated with vitamin D metabolites and growth hormone production was measured.

Hep 3B cells = assay: Metabolism of 1α-OH-D2 in Hep 3B cells; format: in vitro ADME, human; conditions: photodiode array spectrophotometry
Description: Substantially pure 1α-(OH)D2 was obtained from Bone Care International, Inc. of Madison, Wis. The 1α-(OH)D2 was cultured for 48 hours with cells derived from a human hepatoma, Hep 3B, in medium devoid of fetal calf serum using known methods in the art.
Lipid extracts of the combined medium and cells were generated by known methods in the art and were subjected to high pressure liquid chromatography (HPLC) on Zorbax-S1L developed with hexane/isopropano/methanol (91:7:2). The putative 1α,24(?)-(OH)2D2 metabolite eluted between the parent 1α-(OH)D2 and standard 1α,25-(OH)2D2 (also obtained from Bone Care International, Inc. of Madison, Wis.). (As used herein, the term “1α,24(?)-(OH)2D2” is meant to indicate that the epimeric form has not been identified.) The 1α,24(?)-(OH)2D2 was further purified by this HPLC system before the metabolite's identification was undertaken using mass spectrometry analysis.
Hep 3B cells were incubated with 1α-OH-D2, as described above, at final concentrations of 1, 10, or 100 nM (Experiment 1), and 1 or 10 μM (Experiment 2) and 1α,24(S)-(OH)2D2 was extracted and purified. The 1α,24(S)-(OH)2D2 and 1α,25-(OH)2D2 metabolites were quantitated by recovered radiolabel (Experiment 1) or by photodiode array spectrophotometry (Experiment 2).

C=C1/C(=C\C=C2/CCC[C@]3(C)[C@@H]([C@H](C)/C=C/[C@@](C)(O)C(C)C)CC[C@@H]23)C[C@@H](O)C[C@@H]1O [1α,24(S)-(OH)2D2, 1α,24(S)-dihydroxyvitamin D2]
antiproliferative activity, inhibition of thymidine incorporation [1]: potent (and reversible) antiproliferative activity | Net vitamin D-inducible GH-production (vitamin D receptor (VDR); inducer 5 × 10^−9 M): 1306 ng/mL | Total GH Production (vitamin D receptor (VDR); inducer 5 × 10^−9 M): 1350 ng/mL | Net vitamin D-inducible GH-production (vitamin D receptor (VDR); inducer 5 × 10^−10 M): 381 ng/mL | Total GH Production (vitamin D receptor (VDR); inducer 5 × 10^−10 M): 425 ng/mL | Rate of Production (Hep 3B cells; Experiment 2, substrate 1α-OH-D2 1 μM): 4.9 pmol per 10^6 cells/day | Rate of Production (Hep 3B cells; Experiment 2, substrate 1α-OH-D2 10 μM): 59 pmol per 10^6 cells/day
